Experimental data: publication PMC7645366 (EMBO Molecular Medicine, 2020)
No end group written: not given here.

How the values were obtained:
PLY [1] = molecular target: T1, PLY (Streptococcus pneumoniae serotype 4, UniProt P0C2J9); format: binding
S. pneumoniae T4 [2] = experiment: Mouse intranasal infection (pneumonia) model: survival, lung bacterial load, lung cytokines
Experimental: Six‐week‐old male C57BL/6 wild‐type mice were used (Charles River, Germany). The study included 10 mice/individual group which were randomly assigned to the different treatment groups. Sample size calculations were determined according to previous experience (Subramanian et al, 2019b). […] The mice were checked at least twice every day; morning at 9 am (referred as “early check”) and evening at 7 pm (referred as “late check”). Post‐mortem, lungs were collected and washed in PBS and homogenized by passing through the 100‐μm cell strainer. Bacterial counts were determined from lung homogenates by viable count on blood agar plates. Aliquots of lung homogenates were frozen at −80°C for cytokine quantification by ELISA.
The levels of TNF‐α, IL‐8, and IL‐12 (p70) in the culture supernatants and mouse lung tissue were analyzed using the OptEIA ELISA kit (BD Biosciences) following the manufacturer's instructions.

S. pneumoniae T4 [3] = experiment: Zebrafish embryo infection model, survival; format: in vivo, zebrafish (Danio renio); details: 500 CFU T4 microinjected into yolk sac, co-administration 1 nM
Experimental: The AB strain of zebrafish embryos (Danio renio) was collected within first hours post‐fertilization (hpf) from the zebrafish core facility at Karolinska Institutet, Stockholm, and maintained at 28.5°C in E3 medium (5.0 mM NaCl, 0.17 mM KCl, 0.33 mM CaCl2, 0.33 mM MgSO4). […] Microinjection was done using a glass needle (Harvard apparatus, Quebec, Canada) controlled with a micromanipulator Narishige MN‐153 (Narishige International Limited, London, UK) connected to an Eppendorf FemtoJet express (Eppendorf AG, Hamburg, Germany). The injected volume was previously optimized by injecting of a droplet into mineral oil over a scale bar. The embryos were randomly assigned to the treatment groups and a minimum of 156 embryos/group was used. To determine the actual number of bacteria in the injected volume, one drop was collected into the agar plates, and 1–3 embryos were digested and plated just immediately after injection. The infected embryos were incubated at 30°C for 96 h. The infected embryos were monitored for disease symptoms and survival under a stereomicroscope twice a day up to 4 days post‐injection. Absence of heartbeat and movement was interpreted as a sign of death. All experiments were performed thrice.

SLO [4] = molecular target: T2, SLO (Streptococcus pyogenes serotype M1, UniProt P0C0I3); format: cell-based
T2 sequence (P0C0I3 34-571 limits assumed): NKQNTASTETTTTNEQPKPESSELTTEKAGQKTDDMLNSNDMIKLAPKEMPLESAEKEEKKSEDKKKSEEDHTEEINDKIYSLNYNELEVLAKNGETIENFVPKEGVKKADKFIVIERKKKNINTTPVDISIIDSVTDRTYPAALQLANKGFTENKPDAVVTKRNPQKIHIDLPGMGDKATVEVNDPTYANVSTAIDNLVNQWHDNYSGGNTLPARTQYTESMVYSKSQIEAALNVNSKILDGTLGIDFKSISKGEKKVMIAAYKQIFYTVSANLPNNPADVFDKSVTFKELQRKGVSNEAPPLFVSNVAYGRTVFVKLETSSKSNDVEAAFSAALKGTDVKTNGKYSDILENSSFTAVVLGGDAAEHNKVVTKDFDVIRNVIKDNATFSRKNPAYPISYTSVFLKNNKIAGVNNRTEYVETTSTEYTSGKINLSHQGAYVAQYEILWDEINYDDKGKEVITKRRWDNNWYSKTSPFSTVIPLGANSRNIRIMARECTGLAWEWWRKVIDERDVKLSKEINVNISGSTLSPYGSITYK

L. monocytogenes type 1 = experiment: Hemolytic activity of whole bacteria, L. monocytogenes; format: cell-based, Listeria monocytogenes; details: 100 μM peptide
Experimental: All samples were assayed in triplicates.

PLY [5] = molecular target: T1, PLY; format: cell-based
SLO [6] = molecular target: T2, SLO; format: binding
S. pneumoniae strain T4 = experiment: Hemolytic activity of whole bacteria, S. pneumoniae T4; format: cell-based, Streptococcus pneumoniae; details: 100 μM peptide
Experimental: Human blood from anonymous healthy donors (obtained from Karolinska University Hospital) was diluted 1:100 in PBS with 0.5 mM DTT and mixed 1:1 with twofold serial dilutions of 10^8 CFUs of bacteria or 1 μg/ml purified bacterial toxins in 96‐well plates. The MRC‐1 peptides were serially diluted 10‐fold (1–1,000 μM) in PBS and added to the wells prior to addition of blood. The blood was co‐incubated with whole bacteria or purified toxins at 37°C for 1 h, and after 50 min, 0.1% triton X‐100 was added to the positive control wells. Cells were spun down at 400 g for 15 min and the absorbance of the supernatants was measured at 540 nm in a microplate reader. Percentage of lysis compared to the toxin alone was calculated. All samples were assayed in triplicates.

T1 sequence (P0C2J9 whole entry, looked up): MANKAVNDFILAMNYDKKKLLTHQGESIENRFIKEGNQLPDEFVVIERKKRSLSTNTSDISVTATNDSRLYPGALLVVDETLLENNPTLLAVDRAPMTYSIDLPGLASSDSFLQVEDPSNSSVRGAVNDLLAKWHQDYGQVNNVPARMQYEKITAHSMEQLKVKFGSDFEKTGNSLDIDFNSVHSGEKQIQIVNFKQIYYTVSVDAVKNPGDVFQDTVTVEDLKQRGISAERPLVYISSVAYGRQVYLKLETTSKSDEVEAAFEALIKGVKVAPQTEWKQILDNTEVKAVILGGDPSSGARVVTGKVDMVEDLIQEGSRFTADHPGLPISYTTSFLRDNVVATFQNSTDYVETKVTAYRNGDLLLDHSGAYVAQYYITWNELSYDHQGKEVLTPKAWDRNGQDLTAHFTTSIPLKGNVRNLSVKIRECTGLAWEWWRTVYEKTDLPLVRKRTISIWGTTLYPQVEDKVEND

FTWSDGSPVSYEN [P2]
binding to PLY in ELISA (PLY [1]): bind dose‐dependently | Mouse survival, death recorded (S. pneumoniae T4 [2]; Mouse 1 of its group): 1 | Mouse survival, Time (coded) (S. pneumoniae T4 [2]; Mouse 1 of its group, intranasal 2 × 10^6 CFU T4 with 5 μg peptide/mouse (25 μg CaP NPs)): 4 | CFU/ml in mouse lung homogenates (S. pneumoniae T4 [2]; Mouse 2 of its group): 160000000 CFU/ml | Mouse survival, Time (coded) (S. pneumoniae T4 [2]; Mouse 2 of its group): 4 | Mouse survival, death recorded (S. pneumoniae T4 [2]; Mouse 2 of its group): 1 | CFU/ml in mouse lung homogenates (S. pneumoniae T4 [2]; Mouse 3 of its group): 160000000 CFU/ml | Mouse survival, Time (coded) (S. pneumoniae T4 [2]; Mouse 3 of its group): 5 | Mouse survival, death recorded (S. pneumoniae T4 [2]; Mouse 3 of its group): 1 | CFU/ml in mouse lung homogenates (S. pneumoniae T4 [2]; Mouse 4 of its group): 180000000 CFU/ml | Mouse survival, Time (coded) (S. pneumoniae T4 [2]; Mouse 4 of its group): 6 | Mouse survival, death recorded (S. pneumoniae T4 [2]; Mouse 4 of its group): 0 | CFU/ml in mouse lung homogenates (S. pneumoniae T4 [2]; Mouse 5 of its group): 100000000 CFU/ml | Mouse survival, Time (coded) (S. pneumoniae T4 [2]; Mouse 5 of its group): 4 | Mouse survival, death recorded (S. pneumoniae T4 [2]; Mouse 5 of its group): 1 | CFU/ml in mouse lung homogenates (S. pneumoniae T4 [2]; Mouse 6 of its group): 2.6E+07 CFU/ml | Mouse survival, Time (coded) (S. pneumoniae T4 [2]; Mouse 6 of its group): 4 | Mouse survival, death recorded (S. pneumoniae T4 [2]; Mouse 6 of its group): 1 | CFU/ml in mouse lung homogenates (S. pneumoniae T4 [2]; Mouse 7 of its group): 2.5E+07 CFU/ml | Mouse survival, Time (coded) (S. pneumoniae T4 [2]; Mouse 7 of its group): 4 | Mouse survival, death recorded (S. pneumoniae T4 [2]; Mouse 7 of its group): 1 | CFU/ml in mouse lung homogenates (S. pneumoniae T4 [2]; Mouse 8 of its group): 1.7E+07 CFU/ml | Mouse survival, Time (coded) (S. pneumoniae T4 [2]; Mouse 8 of its group): 4 | Mouse survival, death recorded (S. pneumoniae T4 [2]; Mouse 8 of its group): 1 | CFU/ml in mouse lung homogenates (S. pneumoniae T4 [2]; Mouse 9 of its group): 1.7E+07 CFU/ml | Mouse survival, Time (coded) (S. pneumoniae T4 [2]; Mouse 9 of its group): 4 | Mouse survival, death recorded (S. pneumoniae T4 [2]; Mouse 9 of its group): 1 | CFU/ml in mouse lung homogenates (S. pneumoniae T4 [2]; Mouse 10 of its group): 1.0E+07 CFU/ml | Mouse survival, Time (coded) (S. pneumoniae T4 [2]; Mouse 10 of its group): 5 | Mouse survival, death recorded (S. pneumoniae T4 [2]; Mouse 10 of its group): 1 | IL-12 levels in mouse lung homogenates (S. pneumoniae T4 [2]; animal in data line 1): 4502.5 pg/mL | IL-12 levels in mouse lung homogenates (S. pneumoniae T4 [2]; animal in data line 2): 3606.25 pg/mL | TNF-a levels in lung (S. pneumoniae T4 [2]; animal in data line 2): 645.91 pg/mL | IL-12 levels in mouse lung homogenates (S. pneumoniae T4 [2]; animal in data line 3): 5321.25 pg/mL | TNF-a levels in lung (S. pneumoniae T4 [2]; animal in data line 3): 377.50 pg/mL | IL-12 levels in mouse lung homogenates (S. pneumoniae T4 [2]; animal in data line 4): 8600 pg/mL | TNF-a levels in lung (S. pneumoniae T4 [2]; animal in data line 4): 853.64 pg/mL | IL-12 levels in mouse lung homogenates (S. pneumoniae T4 [2]; animal in data line 5): 7346.25 pg/mL | TNF-a levels in lung (S. pneumoniae T4 [2]; animal in data line 5): 703.86 pg/mL | IL-12 levels in mouse lung homogenates (S. pneumoniae T4 [2]; animal in data line 6): 6002.5 pg/mL | TNF-a levels in lung (S. pneumoniae T4 [2]; animal in data line 6): 679.08 pg/mL | IL-12 levels in mouse lung homogenates (S. pneumoniae T4 [2]; animal in data line 7): 5505 pg/mL | TNF-a levels in lung (S. pneumoniae T4 [2]; animal in data line 7): 828.95 pg/mL | IL-12 levels in mouse lung homogenates (S. pneumoniae T4 [2]; animal in data line 8): 3275 pg/mL | TNF-a levels in lung (S. pneumoniae T4 [2]; animal in data line 8): 612.89 pg/mL | IL-12 levels in mouse lung homogenates (S. pneumoniae T4 [2]; animal in data line 9): 4967.5 pg/mL | TNF-a levels in lung (S. pneumoniae T4 [2]; animal in data line 9): 782.63 pg/mL | IL-12 levels in mouse lung homogenates (S. pneumoniae T4 [2]; animal in data line 10): 8335 pg/mL | TNF-a levels in lung (S. pneumoniae T4 [2]; animal in data line 10): 757.37 pg/mL | levels of TNF‐α and IL‐12 in the lung tissue (S. pneumoniae T4 [2]; infected mice): significantly reduced | TNF-a levels in lung (S. pneumoniae T4 [2]; infected mice, post‐sacrifice, animal in data line 1): 263.18 pg/mL | mouse survival (S. pneumoniae T4 [2]; intranasal T4 2 × 10^6 CFUs, 5 μg peptide/mouse): prolonged survival | CFU/ml in mouse lung homogenates (S. pneumoniae T4 [2]; post‐mortem, Mouse 1 of its group): 160000000 CFU/ml | survival of infected zebrafish embryos (S. pneumoniae T4 [3]): significantly improved the survival | cytolysis by SLO in live imaging (SLO [4]): protected the cells from cytolysis | hemolytic activity of L. monocytogenes type 1 (L. monocytogenes type 1): significantly reduced | inhibition of PLY-induced hemolysis (PLY [5]): up to 50% | inhibition of hemolysis induced by purified PLY (PLY [5]): up to 50% | IC50 (PLY [5]; read-out: ED50 (median effective dose) vs purified PLY, human, blood, 60 min): 6.6 µM | binding to SLO in ELISA (SLO [6]): bound dose‐dependently | hemolytic activity of pneumococcal strain T4 (S. pneumoniae strain T4): significantly reduced | %hemolytic activity relative to positive control (0.1% Triton X) (S. pneumoniae strain T4; T4 312500 CFU/ml, experiment 1 of 3): -0.1% | %hemolytic activity relative to positive control (0.1% Triton X) (S. pneumoniae strain T4; T4 312500 CFU/ml, experiment 2 of 3): 4% | %hemolytic activity relative to positive control (0.1% Triton X) (S. pneumoniae strain T4; T4 312500 CFU/ml, experiment 3 of 3): 4.3% | %hemolytic activity relative to positive control (0.1% Triton X) (S. pneumoniae strain T4; T4 625000 CFU/ml, experiment 1 of 3): -0.4% | %hemolytic activity relative to positive control (0.1% Triton X) (S. pneumoniae strain T4; T4 625000 CFU/ml, experiment 2 of 3): 4.5% | %hemolytic activity relative to positive control (0.1% Triton X) (S. pneumoniae strain T4; T4 625000 CFU/ml, experiment 3 of 3): 4.7% | %hemolytic activity relative to positive control (0.1% Triton X) (S. pneumoniae strain T4; T4 12500000 CFU/ml, experiment 1 of 3): -0.7% | %hemolytic activity relative to positive control (0.1% Triton X) (S. pneumoniae strain T4; T4 12500000 CFU/ml, experiment 2 of 3): 4.6% | %hemolytic activity relative to positive control (0.1% Triton X) (S. pneumoniae strain T4; T4 12500000 CFU/ml, experiment 3 of 3): 4.6% | %hemolytic activity relative to positive control (0.1% Triton X) (S. pneumoniae strain T4; T4 25000000 CFU/ml, experiment 1 of 3): 0.2% | %hemolytic activity relative to positive control (0.1% Triton X) (S. pneumoniae strain T4; T4 25000000 CFU/ml, experiment 2 of 3): 4.4% | %hemolytic activity relative to positive control (0.1% Triton X) (S. pneumoniae strain T4; T4 25000000 CFU/ml, experiment 3 of 3): 20% | %hemolytic activity relative to positive control (0.1% Triton X) (S. pneumoniae strain T4; T4 50000000 CFU/ml, experiment 1 of 3): 15.6% | %hemolytic activity relative to positive control (0.1% Triton X) (S. pneumoniae strain T4; T4 50000000 CFU/ml, experiment 2 of 3): 19.9% | %hemolytic activity relative to positive control (0.1% Triton X) (S. pneumoniae strain T4; T4 50000000 CFU/ml, experiment 3 of 3): 19.6% | %hemolytic activity relative to positive control (0.1% Triton X) (S. pneumoniae strain T4; T4 100000000 CFU/ml, experiment 1 of 3): 32% | %hemolytic activity relative to positive control (0.1% Triton X) (S. pneumoniae strain T4; T4 100000000 CFU/ml, experiment 2 of 3): 30.8% | %hemolytic activity relative to positive control (0.1% Triton X) (S. pneumoniae strain T4; T4 100000000 CFU/ml, experiment 3 of 3): 19.1%
